Reference: patent publication US9334231B2, “Photoreactive synthetic regulator of protein function and methods of use thereof” (The Regents of the University of California, priority 2008, dated 2016)
Where a name gives a salt, the structure may show the parent alone.

Legend:
[1] = system: endogenous K+ channels in dissociated hippocampal neurons; conditions: preincubation at 300 nM; cited from earlier work
[2] = illumination at 420 nm
[3] = target: T1, Sh-IR internal TEA binding site (Drosophila melanogaster, UniProt P08510, DEL6-46); test: Inside-out patches from HEK293 cells expressing Sh-IR, dose-response under 380 and 500 nm light; format: cell-based; conditions: inside-out patch
T1 construct: expressed in transfected cells; host or cells: HEK293 / HEK293T cells, calcium phosphate transfection
T1 sequence (P08510 with tags, fused parts or gaps DEL6-46): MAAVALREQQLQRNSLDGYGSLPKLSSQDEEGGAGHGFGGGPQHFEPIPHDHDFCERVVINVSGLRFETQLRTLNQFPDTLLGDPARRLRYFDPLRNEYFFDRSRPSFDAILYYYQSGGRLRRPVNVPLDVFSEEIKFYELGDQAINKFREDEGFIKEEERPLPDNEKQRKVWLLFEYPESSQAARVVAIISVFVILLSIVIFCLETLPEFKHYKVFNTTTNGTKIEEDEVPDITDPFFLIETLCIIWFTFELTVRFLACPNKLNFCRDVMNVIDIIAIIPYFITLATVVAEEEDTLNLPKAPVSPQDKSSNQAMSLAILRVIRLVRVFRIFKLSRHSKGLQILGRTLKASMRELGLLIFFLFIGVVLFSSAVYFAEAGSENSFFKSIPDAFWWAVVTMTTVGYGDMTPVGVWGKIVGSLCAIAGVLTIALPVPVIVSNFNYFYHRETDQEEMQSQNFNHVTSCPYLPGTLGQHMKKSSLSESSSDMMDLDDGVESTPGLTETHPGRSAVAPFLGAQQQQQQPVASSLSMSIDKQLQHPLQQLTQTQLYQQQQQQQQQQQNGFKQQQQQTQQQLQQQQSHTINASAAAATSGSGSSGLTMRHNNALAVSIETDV

Sh-IR = target: T2, Sh-IR (Drosophila melanogaster, UniProt P08510, DEL6-46); test: AzoQA structure-activity screen: HEK293T cells expressing Sh-IR, applied in dark, washout, whole-cell voltage clamp; format: cell-based; conditions: for isomer preference of block: cis (380 nm) versus trans (500 nm)
T2 construct: expressed in transfected cells; host or cells: HEK293 / HEK293T cells, calcium phosphate transfection
T2 sequence (P08510 other isoform, or with tags, fused parts or gaps DEL6-46): as the sequence (P08510 with tags, fused parts or gaps DEL6-46) above
Source text: Solutions were adjusted to 300-310 mOsm.
These AzoQA's were applied in dark, which favors the trans configuration, at various concentrations to HEK293T cells expressing Sh-IR, followed by washout and whole-cell voltage clamp recording.

P2X7R [4] = target: T3, P2X7R (Homo sapiens, UniProt Q99572); test: Loading of QAQ into hippocampal neurons transfected with P2X7R; format: cell-based
T3 construct: expressed in transfected cells; host or cells: HEK cells, co-expressed with Shaker channel
T3 sequence (Q99572 1-595): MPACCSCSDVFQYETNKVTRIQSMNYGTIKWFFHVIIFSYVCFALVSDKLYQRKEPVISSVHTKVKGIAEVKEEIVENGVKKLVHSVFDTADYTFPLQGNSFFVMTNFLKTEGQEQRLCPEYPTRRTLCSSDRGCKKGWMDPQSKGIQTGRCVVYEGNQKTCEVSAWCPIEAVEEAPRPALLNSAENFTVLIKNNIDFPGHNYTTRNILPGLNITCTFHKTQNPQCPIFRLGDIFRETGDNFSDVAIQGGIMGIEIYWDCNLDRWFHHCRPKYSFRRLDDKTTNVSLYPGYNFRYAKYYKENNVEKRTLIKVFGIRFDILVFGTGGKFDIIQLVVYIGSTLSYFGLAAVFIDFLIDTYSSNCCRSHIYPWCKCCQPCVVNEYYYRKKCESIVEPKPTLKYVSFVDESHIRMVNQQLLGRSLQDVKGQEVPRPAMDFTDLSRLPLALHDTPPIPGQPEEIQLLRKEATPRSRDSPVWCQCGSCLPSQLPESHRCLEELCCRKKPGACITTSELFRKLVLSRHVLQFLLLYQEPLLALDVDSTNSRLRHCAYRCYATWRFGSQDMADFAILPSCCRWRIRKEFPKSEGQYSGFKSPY
Source text: (§1) Hippocampal neurons were transfected with P2X7R. […] In 1 of 13 cells tested, QAQ entered a cell which was not heterologously expressing P2X7R, possibly because this cell was expressing endogenous P2X7 receptors. It was then asked whether QAQ could enter cells naturally expressing either of these channels and looked at sensory neurons. Sensory neurons are activated by sensory input and project towards the central nervous system. Sensory neurons of the trigeminal ganglia naturally express TRPV1 channels. QAQ was applied together with capsaicin on these sensory neurons in in vitro culture.

TRPV1 = target: T4, TRPV1 (Homo sapiens, UniProt Q8NER1); test: Loading of QAQ through TRPV1 in cells co-expressing Shaker channel; format: cell-based
T4 construct: expressed in transfected cells; the context is HEK cells
T4 sequence (Q8NER1 whole entry, species assumed): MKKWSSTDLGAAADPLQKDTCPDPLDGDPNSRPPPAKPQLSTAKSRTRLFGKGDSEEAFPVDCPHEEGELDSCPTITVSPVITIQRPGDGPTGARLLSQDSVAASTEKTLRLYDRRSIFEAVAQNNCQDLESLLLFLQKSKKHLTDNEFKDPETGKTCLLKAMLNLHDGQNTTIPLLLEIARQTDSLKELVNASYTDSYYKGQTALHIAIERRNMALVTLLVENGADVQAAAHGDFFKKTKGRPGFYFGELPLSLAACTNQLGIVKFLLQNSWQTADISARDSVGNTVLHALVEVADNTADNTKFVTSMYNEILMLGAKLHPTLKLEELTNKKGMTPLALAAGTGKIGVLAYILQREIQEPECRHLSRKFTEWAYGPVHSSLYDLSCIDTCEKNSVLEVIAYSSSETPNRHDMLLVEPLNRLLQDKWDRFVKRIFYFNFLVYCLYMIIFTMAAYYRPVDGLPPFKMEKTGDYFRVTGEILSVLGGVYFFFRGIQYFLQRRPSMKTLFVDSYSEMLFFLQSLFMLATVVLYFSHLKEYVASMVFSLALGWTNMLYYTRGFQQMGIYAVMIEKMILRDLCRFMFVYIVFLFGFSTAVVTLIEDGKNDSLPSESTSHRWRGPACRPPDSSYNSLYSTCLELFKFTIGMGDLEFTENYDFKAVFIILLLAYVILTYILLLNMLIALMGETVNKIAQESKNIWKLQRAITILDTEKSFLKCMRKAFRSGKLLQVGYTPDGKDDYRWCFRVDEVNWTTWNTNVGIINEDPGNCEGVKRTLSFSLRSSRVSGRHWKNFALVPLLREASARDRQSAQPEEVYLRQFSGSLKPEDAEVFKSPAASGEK
Source text: (§2) Advantage was taken of the biophysical properties of certain ion channels. TRPV1 channel and the ATP gated P2X7 receptor can open a wide pore upon prolonged agonist exposure. This pore becomes then permeable to large organic cations like the local anesthetic QX314. It was investigated whether QAQ could be loaded into cells expressing either one of these two channels (P2X7R or TRPV1). If so, specific cells could be targeted with QAQ, and then excitability could be controlled with light. This concept is depicted schematically in FIG. 8.
(§3) It was first determined whether P2X7R expressed in HEK cells could be an entry route for QAQ. P2X7R was co-expressed together with Shaker channel.

Kν channels = test: Stated characteristics of exemplary synthetic regulators (channel block)
[5] = system: Shaker K channel, Kν2.1, Kν3.1, Kν4.2, hippocampal Kν; test: QAQ photoswitching of voltage gated K channels (QAQ in the pipette); format: cell-based
Procedure: (§4) Experiments were conducted to test the effect of QAQ on various channels.
(§5) Purple light was used in all cases to relieve the block. FIG. 6 depicts a bar graph showing the quantification of photoswitching on individual channels when having 100 μM QAQ in the pipette.

[6] = system: L type and N type Ca channels (L-type Caν, Caν2.2); test: QAQ photoswitching of Ca channels; format: cell-based
Procedure: as §4, §5

Shaker channel = target: T5, Shaker channel (Drosophila melanogaster, UniProt P08510); test: QAQ membrane permeance: patch pipette versus external application, HEK cells expressing Shaker channel; format: cell-based
T5 construct: expressed in transfected cells; host or cells: HEK cells
T5 sequence (P08510 whole entry): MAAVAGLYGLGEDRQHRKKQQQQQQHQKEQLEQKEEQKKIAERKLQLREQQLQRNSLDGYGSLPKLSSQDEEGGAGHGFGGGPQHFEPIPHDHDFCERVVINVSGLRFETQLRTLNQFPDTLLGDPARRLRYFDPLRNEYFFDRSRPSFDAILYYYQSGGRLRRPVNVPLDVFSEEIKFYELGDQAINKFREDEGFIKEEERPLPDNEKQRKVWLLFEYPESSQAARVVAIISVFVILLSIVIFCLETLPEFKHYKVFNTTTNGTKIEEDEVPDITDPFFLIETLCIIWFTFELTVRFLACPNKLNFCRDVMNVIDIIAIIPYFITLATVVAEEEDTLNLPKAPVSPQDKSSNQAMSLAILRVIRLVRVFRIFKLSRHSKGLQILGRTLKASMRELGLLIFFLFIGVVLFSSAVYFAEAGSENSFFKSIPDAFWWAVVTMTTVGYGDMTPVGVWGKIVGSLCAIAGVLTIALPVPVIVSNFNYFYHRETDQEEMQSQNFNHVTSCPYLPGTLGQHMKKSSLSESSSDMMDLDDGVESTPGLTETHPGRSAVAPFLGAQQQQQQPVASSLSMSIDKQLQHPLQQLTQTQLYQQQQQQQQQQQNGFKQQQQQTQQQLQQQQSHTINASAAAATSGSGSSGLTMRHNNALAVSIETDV
Source text: The K current was observed upon a depolarization to +40 mV under purple 380 nm light.

neurons = test: Neuron firing under current clamp with QAQ; format: cell-based; conditions: progressively greater current injected
Source text: The effect of QAQ on neurons was investigated. Neuron firing was examined under current clamp, by injecting progressively greater current into the cell, under 2 different wavelengths of light. […] This is because block of Na channels dominates: when Na channels are blocked, the initial phase of the AP is blocked and neurons are silent. Again, QAQ acts like lidocaine in neurons, silencing cells under green light or in the dark.

[7] = system: capsaicin-evoked nocifensive behaviors; test: Capsaicin-evoked nocifensive behaviors after hindpaw injection; format: in vivo, mouse; conditions: co-injection with capsaicin into hindpaw, 10 min, versus capsaicin alone
Procedure: It was shown (Example 3) that QAQ blocks capsaicin-evoked sensory neuron activation in vitro, in a light-dependent manner. It was then tested whether QAQ can block nocifensive responses in vivo, and whether this action can be regulated by light. This experiment consisted of 2 parts: (1) it was tested whether QAQ acts as an analgesic, in the absence of light. […] Injection of capsaicin into the mouse hindpaw elicits a 5-10 min bout of licking and flinching; such responses are blocked by co-application of lidocaine, morphine, and other analgesics (Binshtock et al., 2007 Nature 449:607-10). Because analgesics are molecules that alleviate pain, evaluating the analgesic properties of a new molecule requires induction of discomfort in animals. The ability of QAQ to inhibit capsaicin-evoked nocifensive behaviors was tested. Fourteen mice were used for this experiment: to one set of 7 mice, capsaicin alone was applied by injection; to a second set of 7 mice, capsaicin and QAQ were co-injected. The mice were then placed in a transparent Plexiglas chamber and behavior was video recorded for 10 min. After 10 min, mice were euthanized.

P2X7R [8] = target: T3, P2X7R; test: Loading of QAQ through P2X7R in HEK cells co-expressing Shaker channel; format: cell-based
Source text: as §2, §3

[9] = system: native K channels of sensory neurons naturally expressing TRPV1; test: QAQ with capsaicin on sensory neurons of the trigeminal ganglia in culture; format: cell-based; conditions: QAQ applied together with capsaicin
Source text: as §1

[10] = system: native Na channels expressed in NG108-15 cells (Naν); test: QAQ photoswitching of native Na channels in NG108-15 cells; format: cell-based
Procedure: as §4, §5

[11] = target: T6, Shaker IR channels (Sh-IR) (Drosophila melanogaster, UniProt P08510, DEL6-46); test: Whole-cell patch clamp of HEK293 cells expressing Shaker IR after AAQ/EtAcAQ/AcAQ treatment; format: cell-based; conditions: 500-nm and 380-nm light; for block of steady-state current: after blocker pre-treatment (400 uM in FIG. 2)
T6 construct: expressed in transfected cells; host or cells: HEK293 / HEK293T cells, calcium phosphate transfection
T6 sequence (P08510 other isoform, or with tags, fused parts or gaps DEL6-46): as the sequence (P08510 with tags, fused parts or gaps DEL6-46) above

[12] = system: endogenous K+ channels in dissociated hippocampal neurons
[13] = Isomerization wavelengths of red-shifted regulator; format: physicochemical
[14] = 100 μM QAQ in the pipette, purple light relieves block

C=CC(=O)Nc1ccc(/N=N/c2ccc(NC(=O)C[N+](CC)(CC)CC)cc2)cc1 [AAQ, Acrylamide Azobenzene Quaternary ammonium]
photosensitization of endogenous K+ channels [1]: strongly photosensitize endogenous K^+
cis isomer content [2]: 50%
current block after washout with control solution [3]: relieved within several seconds of washout
IC50 ([3]; 380 nm light, n=3-5, read-out: IC50 (cis isomer)): 64 µM

CCCc1ccc(N=Nc2ccc(NC(=O)C[N+](CC)(CC)CC)cc2)cc1.O=C[O-] [PrAQ, 4-propyl-4′-(2)-triethylammoniumacetamidoazobenzene formate]
block of Iss in the cis form (Sh-IR; 40 nM): 50%
block by the trans isomer (Sh-IR; 40 nM, 500 nm): without producing obvious block
isomer preference of block (Sh-IR): preferentially blocks in the cis form

CC[N+](CC)(CC)CC(=O)Nc1ccc(/N=N/c2ccc(NC(=O)C[N+](CC)(CC)CC)cc2)cc1 [QAQ]
loading into hippocampal neurons (P2X7R [4]; ATP): could be loaded into cells only when P2X7 receptors were expressed
cells not heterologously expressing P2X7R that QAQ entered (P2X7R [4]; cells tested): 1 of 13
loading into cells (TRPV1; TRPV1 co-expressed with Shaker, capsaicin): could be loaded into cells co-expressing TRPV1 and Shaker channel in the presence of the TRPV1 agonist capsaicin
photoswitching (TRPV1; loaded in the presence of capsaicin): photoswitching could be effected
channels blocked / selectivity (Kν channels): able to block Kν, Naν, and Caν channels
external or internal blocker (Kν channels): internal blocker
isomeric form that blocks (Kν channels): trans-blocker
photoregulation of K channels [5]: photoregulate Shaker K channel and also other K channel subtypes such as Kν2, Kν3 Kν4 and native K channels in hippocampal cells
light condition of block [5, 14]: the block occurred in the dark, or under 500 nm light
photosensitization of Ca channels [6]: photosensitize L type and N type Ca channels
light condition of block [6, 14]: the block occurred in the dark, or under 500 nm light
membrane permeance (Shaker channel): membrane impermeant
photoregulation of K current, applied through the patch pipette (Shaker channel; 100 μM QAQ, +40 mV, 380 nm versus green light): photoregulation of the K channel current was observed
photoregulation of K current, externally applied (Shaker channel; external application): no photoregulation of K current was seen
neuron firing under green light (neurons): does at best one action potential (AP), but remains silent
neuron firing under purple light (neurons): fires normally
number of licks [7]: reduced
time spent paw lifting [7]: reduced
loading into HEK cells (P2X7R [8]; P2X7R co-expressed with Shaker, ATP coapplied): could be loaded in the HEK cell only if P2X7 channels were expressed and ATP, the agonist for the P2X7 channels, was coapplied
photoswitching of Shaker channels current (P2X7R [8]; application of 5 min with ATP): very good photoswitching
photoswitching of native K channels [9]: very robust photoswitching of native K channels
photosensitization of Na channels [10]: photosensitizes native Na channels expressed in NG108-15 cells
light condition of block [10, 14]: the block occurred in the dark, or under 500 nm light

CCC(=O)Nc1ccc(N=Nc2ccc(NC(=O)C[N+](CC)(CC)CC)cc2)cc1 [EtAcAQ]
block of steady-state current [11]: persistently blocked the entire steady-state current in a light-dependent fashion

CC[N+](CC)(CC)CC(=O)Nc1ccc(/N=N/c2ccc(NC(=O)c3ccccc3)cc2)cc1 [BzAQ, 4-benzamido-4′-(2)-triethylammoniumacetamidoazobenzene formate]
minimal dose able to block >95% of Iss (Sh-IR; Iss relative to that under 380 nm illumination, extracellular treatment in dark): 25 µM
channels blocked / selectivity (Kν channels): selective for Kν channels
external or internal blocker (Kν channels): external blocker
isomeric form that blocks (Kν channels): trans-blocker
Iss blocked ([12]; 20 μM BzAQ extracellular, Iss at +30 mV compared at 380 and 500 nm): 57+/−6.6%
action potential firing ([12]; current clamp, cell near threshold, 500 nm light): sufficient to induce action potential firing
effect on cellular membrane potential ([12]; current clamp, switched from cis to trans): significantly depolarize the cellular membrane potential

CCN(CC)c1ccc(/N=N/c2ccc(NC(=O)C[N+](CC)(CC)CC)cc2)cc1 [DAAQ]
wavelength of first isomeric form [13]: 472 nm
wavelength of second isomeric form [13]: 550 nm
channels blocked / selectivity (Kν channels): able to block Kν channels
external or internal blocker (Kν channels): external blocker
isomeric form that blocks (Kν channels): trans-blocker

CC[N+](CC)(CC)CC(=O)Nc1ccc(N=Nc2ccc(NC(C)=O)cc2)cc1.O=C[O-] [AcAQ, 4-acetamido-4′-(2)-triethylammoniumacetamidoazobenzene formate]
block of steady-state current [11]: persistently blocked the steady-state current in a light-dependent fashion
photoswitching after pre-treatment ([11]; extracellular pre-treatment): considerable sustained photoswitching

C=CCCC(=O)Nc1ccc(N=Nc2ccc(NC(=O)C[N+](CC)(CC)CC)cc2)cc1.O=C[O-] [compound 10, 4-(pent-4-en)amido-4′-(2)-triethylammoniumacetamidoazobenzene formate]
isomer preference of block (Sh-IR): essentially equal block in both cis and trans forms
